Test results from the NIST ThermoML archive (doi:10.1021/je050159x).
Numbers after ± are expanded uncertainties.

Legend:
[1] = xn = mol fraction of the nth substance listed
[2] = for mass density: 101.33 kPa, Liquid

OCc1ccccc1 [benzenemethanol] + CCCCCC
surface tension liquid-gas [mN/m], [1]
Conditions	x2 = 0	x2 = 0.0068	x2 = 0.0085	x2 = 0.0198	x2 = 0.0215	x2 = 0.0264	x2 = 0.0493	x2 = 0.07
293.15 K	39.05 ± 1.1	37.39 ± 1	37.24 ± 1	34.45 ± 0.97	33.73 ± 0.95	33.22 ± 0.94	30.61 ± 0.88	27.46 ± 0.81
298.15 K	38.58 ± 1.1	37.1 ± 1	36.85 ± 1	34.74 ± 0.98	34.04 ± 0.96	33.56 ± 0.95	31.06 ± 0.89	27.96 ± 0.82
303.15 K	38.12 ± 1.1	36.84 ± 1	36.41 ± 1	35.03 ± 0.98	34.38 ± 0.97	33.86 ± 0.96	31.54 ± 0.9	28.72 ± 0.84
308.15 K	37.63 ± 1.1	36.53 ± 1	36.01 ± 1	35.35 ± 0.99	34.69 ± 0.98	34.25 ± 0.97	31.92 ± 0.91	29.29 ± 0.85
313.15 K	37.16 ± 1	36.3 ± 1	35.6 ± 1	35.63 ± 1	34.99 ± 0.98	34.59 ± 0.97	32.35 ± 0.92	29.9 ± 0.86

OCc1ccccc1 [benzenemethanol]
[2]
Conditions	mass density [kg/m3]	surface tension liquid-gas [mN/m]
293.15 K	1045.2 ± 1.1	39.05 ± 1.1
298.15 K	1041.4 ± 1.1	38.58 ± 1.1
303.15 K	–	38.12 ± 1.1
308.15 K	–	37.63 ± 1.1
313.15 K	1029.8 ± 1	37.16 ± 1
318.15 K	–	36.63 ± 1
323.15 K	–	36.18 ± 1

C1CCCCC1 [cyclohexane] + OCc1ccccc1
[1], x1 = 1
Conditions	surface tension liquid-gas [mN/m]
293.15 K	25.06 ± 0.75
298.15 K	24.45 ± 0.73
303.15 K	23.87 ± 0.72
308.15 K	23.21 ± 0.7
313.15 K	22.71 ± 0.69
318.15 K	22.05 ± 0.68
323.15 K	21.45 ± 0.66

OCc1ccccc1 [benzenemethanol] + CCCCCCCCC
surface tension liquid-gas [mN/m], [1]
Conditions	x2 = 0	x2 = 0.0061	x2 = 0.008	x2 = 0.0116	x2 = 0.0204	x2 = 0.0329	x2 = 0.0408	x2 = 0.0668
293.15 K	39.05 ± 1.1	36.83 ± 1	36.33 ± 1	35.34 ± 0.99	32.52 ± 0.93	30.44 ± 0.88	28.73 ± 0.84	26.66 ± 0.79
298.15 K	38.58 ± 1.1	36.4 ± 1	35.95 ± 1	35.13 ± 0.99	32.31 ± 0.92	30.23 ± 0.87	28.52 ± 0.83	26.56 ± 0.78
303.15 K	38.12 ± 1.1	35.85 ± 1	35.52 ± 1	34.59 ± 0.97	32.02 ± 0.91	30 ± 0.87	28.22 ± 0.82	26.38 ± 0.78
308.15 K	37.63 ± 1.1	35.51 ± 1	35.21 ± 0.99	34.33 ± 0.97	31.83 ± 0.91	29.85 ± 0.86	28.03 ± 0.82	26.28 ± 0.78
313.15 K	37.16 ± 1	35.03 ± 0.98	34.84 ± 0.98	33.98 ± 0.96	31.61 ± 0.9	29.62 ± 0.86	27.82 ± 0.81	26.19 ± 0.77
318.15 K	36.63 ± 1	34.61 ± 0.97	34.5 ± 0.97	33.67 ± 0.95	31.41 ± 0.9	29.44 ± 0.85	27.67 ± 0.81	26.12 ± 0.77
323.15 K	36.18 ± 1	34.25 ± 0.97	34.16 ± 0.96	33.32 ± 0.94	31.22 ± 0.89	29.25 ± 0.85	27.46 ± 0.81	26.02 ± 0.77

OCc1ccccc1 [benzenemethanol] + C1CCCCC1
surface tension liquid-gas [mN/m], [1]
Conditions	x2 = 0	x2 = 0.0068	x2 = 0.0079	x2 = 0.0107	x2 = 0.0202	x2 = 0.0312	x2 = 0.0409	x2 = 0.0655
293.15 K	39.05 ± 1.1	37.88 ± 1.1	37.73 ± 1.1	37.48 ± 1	37.07 ± 1	36.53 ± 1	35.88 ± 1	34.14 ± 0.96
298.15 K	38.58 ± 1.1	37.43 ± 1	37.39 ± 1	37.15 ± 1	36.68 ± 1	36.25 ± 1	35.66 ± 1	34.04 ± 0.96
303.15 K	38.12 ± 1.1	37.06 ± 1	36.93 ± 1	36.74 ± 1	36.32 ± 1	35.98 ± 1	35.41 ± 0.99	33.94 ± 0.96
308.15 K	37.63 ± 1.1	36.66 ± 1	36.54 ± 1	36.38 ± 1	35.92 ± 1	35.73 ± 1	35.22 ± 0.99	33.82 ± 0.96
313.15 K	37.16 ± 1	36.29 ± 1	36.12 ± 1	35.99 ± 1	35.58 ± 1	35.47 ± 1	34.96 ± 0.98	33.72 ± 0.95
318.15 K	36.63 ± 1	35.84 ± 1	35.74 ± 1	35.66 ± 1	35.24 ± 0.99	35.22 ± 0.99	34.77 ± 0.98	33.61 ± 0.95
323.15 K	36.18 ± 1	35.5 ± 1	35.32 ± 0.99	35.25 ± 0.99	34.86 ± 0.98	34.96 ± 0.98	34.53 ± 0.97	33.5 ± 0.95

OCc1ccccc1 [benzenemethanol] + CCCCCCC
surface tension liquid-gas [mN/m], [1]
Conditions	x2 = 0	x2 = 0.0065	x2 = 0.009	x2 = 0.0112	x2 = 0.0238	x2 = 0.0306	x2 = 0.0445	x2 = 0.067
293.15 K	39.05 ± 1.1	37.77 ± 1.1	37.07 ± 1	–	33.61 ± 0.95	32.37 ± 0.92	28.84 ± 0.84	26.09 ± 0.77
298.15 K	38.58 ± 1.1	37.47 ± 1	36.87 ± 1	34.69 ± 0.98	33.83 ± 0.96	32.58 ± 0.93	29.16 ± 0.85	26.47 ± 0.78
303.15 K	38.12 ± 1.1	37.1 ± 1	36.62 ± 1	35.02 ± 0.98	34.05 ± 0.96	32.82 ± 0.93	29.43 ± 0.85	26.89 ± 0.79
308.15 K	37.63 ± 1.1	36.78 ± 1	36.41 ± 1	35.28 ± 0.99	34.27 ± 0.97	33.04 ± 0.94	29.68 ± 0.86	27.27 ± 0.8
313.15 K	37.16 ± 1	36.49 ± 1	36.16 ± 1	35.53 ± 1	34.48 ± 0.97	33.24 ± 0.94	30 ± 0.87	27.7 ± 0.81
318.15 K	36.63 ± 1	36.18 ± 1	35.95 ± 1	35.83 ± 1	34.7 ± 0.98	33.46 ± 0.95	30.3 ± 0.87	28.08 ± 0.82
323.15 K	36.18 ± 1	35.92 ± 1	35.74 ± 1	36.11 ± 1	34.95 ± 0.98	33.68 ± 0.95	30.61 ± 0.88	28.46 ± 0.83

CCCCCCC [heptane]
[2]
Conditions	mass density [kg/m3]	surface tension liquid-gas [mN/m]
293.15 K	696 ± 6.3	20.05 ± 0.63
298.15 K	691.9 ± 6.4	19.54 ± 0.62
303.15 K	–	19.1 ± 0.61
308.15 K	–	18.58 ± 0.59
313.15 K	680 ± 6.6	18.08 ± 0.58
318.15 K	–	17.6 ± 0.57
323.15 K	–	17.06 ± 0.56

CCCCCCCCC [nonane]
[2]
Conditions	mass density [kg/m3]	surface tension liquid-gas [mN/m]
293.15 K	717.7 ± 3	23.04 ± 0.7
298.15 K	713.9 ± 3	22.49 ± 0.69
303.15 K	–	22.04 ± 0.68
308.15 K	–	21.49 ± 0.66
313.15 K	694.2 ± 3.2	20.94 ± 0.65
318.15 K	–	20.47 ± 0.64
323.15 K	–	19.98 ± 0.63

CCCCCC [hexane] + OCc1ccccc1
[1], x1 = 1
Conditions	surface tension liquid-gas [mN/m]
293.15 K	18.56 ± 0.59
298.15 K	18.03 ± 0.58
303.15 K	17.44 ± 0.57
308.15 K	16.92 ± 0.56
313.15 K	16.38 ± 0.54

CCCCCCC [heptane] + OCc1ccccc1
[1], x1 = 1
Conditions	surface tension liquid-gas [mN/m]
293.15 K	20.05 ± 0.63
298.15 K	19.54 ± 0.62
303.15 K	19.1 ± 0.61
308.15 K	18.58 ± 0.59
313.15 K	18.08 ± 0.58
318.15 K	17.6 ± 0.57
323.15 K	17.06 ± 0.56

CCCCCCCCC [nonane] + OCc1ccccc1
[1], x1 = 1
Conditions	surface tension liquid-gas [mN/m]
293.15 K	23.04 ± 0.7
298.15 K	22.49 ± 0.69
303.15 K	22.04 ± 0.68
308.15 K	21.49 ± 0.66
313.15 K	20.94 ± 0.65
318.15 K	20.47 ± 0.64
323.15 K	19.98 ± 0.63

CCCCCC [hexane]
[2]
Conditions	mass density [kg/m3]	surface tension liquid-gas [mN/m]
293.15 K	660.2 ± 6.9	18.56 ± 0.59
298.15 K	655.4 ± 7	18.03 ± 0.58
303.15 K	–	17.44 ± 0.57
308.15 K	–	16.92 ± 0.56
313.15 K	641.4 ± 7.2	16.38 ± 0.54

C1CCCCC1 [cyclohexane]
[2]
Conditions	mass density [kg/m3]	surface tension liquid-gas [mN/m]
293.15 K	778.6 ± 2.5	25.06 ± 0.75
298.15 K	773.9 ± 2.5	24.45 ± 0.73
303.15 K	–	23.87 ± 0.72
308.15 K	–	23.21 ± 0.7
313.15 K	759.6 ± 2.7	22.71 ± 0.69
318.15 K	–	22.05 ± 0.68
323.15 K	–	21.45 ± 0.66
